# Measured values taken from patent US7183075B2, “Purified and isolated potassium-chloride cotransporter nucleic acids and polypeptides and therapeutic and screening methods using same” (Vanderbilt University, priority 2000, dated 2007).
# pIC50: −log10 of the molar value. Like-named read-outs stand apart in the source and are kept apart here.
# Molecular target: T1, hKCC2 (Homo sapiens, UniProt Q9H2X9, L143X/L381X/L939X)
# T1 construct: expressed in transfected cells; host or cells: Xenopus laevis oocytes injected with 25 ng hKCC2 cRNA
# T1 sequence (Q9H2X9 with tags, fused parts or gaps isoform Q9H2X9-2 L120X/L358X/L916X limits assumed): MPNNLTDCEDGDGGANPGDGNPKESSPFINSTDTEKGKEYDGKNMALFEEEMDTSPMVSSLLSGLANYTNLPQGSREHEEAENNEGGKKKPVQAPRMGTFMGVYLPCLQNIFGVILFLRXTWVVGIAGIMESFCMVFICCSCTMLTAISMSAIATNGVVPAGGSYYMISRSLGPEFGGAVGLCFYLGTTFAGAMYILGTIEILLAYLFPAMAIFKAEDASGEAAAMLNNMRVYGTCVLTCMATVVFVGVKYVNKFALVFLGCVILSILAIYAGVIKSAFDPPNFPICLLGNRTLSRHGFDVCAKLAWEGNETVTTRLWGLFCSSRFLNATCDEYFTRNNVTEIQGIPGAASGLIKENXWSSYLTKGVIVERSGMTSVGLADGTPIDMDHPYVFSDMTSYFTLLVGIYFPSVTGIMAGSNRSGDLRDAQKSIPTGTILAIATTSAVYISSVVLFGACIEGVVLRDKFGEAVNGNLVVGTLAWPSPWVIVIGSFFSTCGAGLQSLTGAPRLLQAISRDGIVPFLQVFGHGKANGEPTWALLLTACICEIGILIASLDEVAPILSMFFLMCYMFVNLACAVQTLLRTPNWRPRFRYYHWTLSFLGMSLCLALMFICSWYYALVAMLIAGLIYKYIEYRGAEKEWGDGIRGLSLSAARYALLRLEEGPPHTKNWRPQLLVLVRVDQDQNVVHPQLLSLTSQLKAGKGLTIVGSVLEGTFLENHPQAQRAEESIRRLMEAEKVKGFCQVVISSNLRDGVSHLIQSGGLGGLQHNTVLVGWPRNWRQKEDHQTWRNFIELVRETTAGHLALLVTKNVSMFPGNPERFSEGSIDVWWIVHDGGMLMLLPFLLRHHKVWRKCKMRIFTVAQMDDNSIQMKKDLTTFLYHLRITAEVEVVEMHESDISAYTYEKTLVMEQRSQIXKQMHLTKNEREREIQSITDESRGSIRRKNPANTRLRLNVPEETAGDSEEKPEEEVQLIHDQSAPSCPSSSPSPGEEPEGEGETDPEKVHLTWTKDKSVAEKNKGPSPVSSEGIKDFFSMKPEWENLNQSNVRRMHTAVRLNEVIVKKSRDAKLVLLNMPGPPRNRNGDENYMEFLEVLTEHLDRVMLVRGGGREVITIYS
# Assay: 86Rb+ uptake (K+-Cl- cotransport) in Xenopus oocytes injected with hKCC2 cRNA
# Format: cell-based
# Procedure: Oocytes were surgically collected from anesthetized female Xenopus adults under 0.17% tricaine and incubated for 1 hour with vigorous shaking in frog Ringer ND96 (96 mM sodium chloride, 2 mM potassium chloride, 1.8 mM calcium chloride, 1.0 mM magnesium chloride, and 5 mM Hepes/Tris, pH 7.4) in the presence of 2 mg/ml collagenase B. Oocytes were then washed four times in ND96, manually defolliculated, and incubated overnight in ND96 at 18° C. On the next day, defolliculated stage V–VI oocytes were injected with 50 nl of water or a solution containing cRNA at a concentration of 0.25–0.5 μg/μl (25 ng/oocyte). Oocytes were incubated at 17–18° C. in ND96 (96 mM sodium chloride, 2 mM potassium chloride, 1.8 mM calcium chloride, 1.0 mM magnesium chloride, and 5 mM Hepes/Tris, pH 7.4), supplemented with 2.5 mM sodium pyruvate and 5 mg/100 ml gentamicin, for 3–4 days. The incubation medium was changed every 24 hours. On the day of the experiment, oocytes were switched to Cl^−-free ND96 (96 mM Na^+ Na^+ isethionate, 2 mM K^+ gluconate, 6 mM Ca^2+ gluconate, 1 mM Mg^2+ gluconate, 5 mM Hepes, 2.5 mM sodium pyruvate, 5 mg/100 ml gentamicin, pH 7.4) for 2 hours prior to the uptake assay.
# K^+—Cl^− cotransport was assessed by measuring tracer ^86Rb^+ uptake (NEN® Life Science Products of Boston, Mass.) in experimental groups of at least 15 oocytes. […] All uptake solutions also contained 1.8 mM CaCl2, 1 mM MgCl2, 5 mM Hepes, pH 7.4, and were supplemented with 1 mM ouabain and […] ^86Rb^+. Isotonic conditions were generated by supplementing the same solutions with 3.5 g/100 ml sucrose to reach isosmolar conditions for oocytes (˜210 mOsm/kg). Ouabain was added to prevent ^86Rb^+ uptake via the Na^+—K^+-ATPase. The absence of extracellular Na^+ and the hypotonicity of the uptake medium prevented ^86Rb^+ uptake via the endogenous Na^+—K^+-2Cl^− cotransporter that is present in oocytes (Gamba et al. (1994) J Biol Chem 269:17713–17722).
# All uptake assays were performed at 32° C. At the end of the uptake period, oocytes were washed five times in ice-cold uptake solution without isotope to remove extracellular fluid tracer. Oocytes were dissolved in 10% SDS, and tracer activity was determined for each oocyte by β-scintillation counting.
# Uptake assays to detect K^+—Cl^− cotransport mediated by a hKCC2 were performed using similar methods.
# FIG. 10 presents line graphs depicting concentration dependence of K^+—Cl^− cotransport mediated by hKCC2, which was used to calculate ion affinities using analogous methods. Uptake assays were simultaneously assessed in water-injected oocytes. To determine ^86Rb^+ uptake due to KCC2, the mean values for water groups were subtracted from the mean values for corresponding KCC2 groups. Uptake assays in hypotonic media were performed for 60 minutes with a fixed concentration of K^+or Cl^− at 50 mM. The concentration of the counterion was varied from 0 to 50 mM as indicated.
# [1] = hKCC2, hypotonic, counterion fixed at 50 mM, 86Rb+ as substitute for K+, read-out: Km (Michaelis-Menten fit)
compound,measurement,setting,value
Cl [Chloride],Km,"KCC2, read-out: Chloride Km",6.3 mM
same,Km,[1],6.31 mM
[K+] [Potassium],Km,"KCC2, read-out: Potassium Km",9.3 mM
same,Km,[1],9.3 mM
NS(=O)(=O)c1cc(C(=O)O)c(NCc2ccco2)cc1Cl [furosemide],pIC50,KCC2,4.05
HgCl2 [Hg—Cl2],response of KCC2 to mercury,"50 μM HgCl2, hypotonic",sensitive
